# Measurements as given in US20080249144A1, “Preventive or Therapeutic Agent for Chronic Inflammatory Lung Disease” (KAKEN PHARMACEUITICAL CO., LTD., priority 2004, published 2008).
# Columns and labels:
# human neutrophils = test: LTB4-induced human neutrophil migration (48-well modified Boyden chamber); assay type: cell-based
# Procedure: Leukocytes were collected from human peripheral blood samples (20 mL of venous blood was taken by a doctor) were obtained from 4 healthy adults (male). They received sufficient information on the purpose of the experiment and gave informed consent in advance. An equivalent amount of 3% dextran (M.W. 208000) saline solution was added to the heparinized blood thus obtained and the mixture was kept to stand for one hour. Thereafter, the supernatant was collected and centrifuged at 150 g for 5 minutes at 4° C. The supernatant was discarded and the pellet was repeatedly twice haemolysed. To explain in detail, 4 mL of an ice-cooled 0.2% NaCl solution was added, quickly suspended and allowed to stand for 20 to 30 seconds. Thereafter, 4 mL of an ice-cooled 1.6% NaCl solution was added to the suspension solution to return the solution to the isotonic condition. After centrifugation was performed at 150 g for 5 minutes at 4° C., the same treatment was repeated. The cell pellet obtained was finally suspended in a buffer (Hank's solution containing 0.1% FBS) and subjected to an experiment.
# This experiment was performed using a 48-well modified Boyden chamber (Neuro Probe). To explain in detail, the wells of the bottom plate of the chamber were filled with 25 μl of vehicle solution containing 10 nmol/L of LTB4. A polycarbonate filter (PVP-free, pore size: 3 μm) was placed on the bottom plate. The top plate of the chamber was mounted and each well of the upper plate was filled with 45 μL of a leukocyte suspension solution (1.0×10^6 cells/mL) prepared with the buffer. Immediately after that, 5 μL of a test substance (10 fold concentration of a final concentration) was added to the wells. […] The numbers of cells were counted in 4 visual fields (×400) per well and the average of them was regarded as the number of migrated cells. Each test substance was evaluated using 3 wells. The average value of these wells was calculated and regarded as the value of each substance.
# The average and standard deviation of each group were calculated. […]
# [1] = tested on: murine model of BLM-induced pulmonary fibrosis; test: BLM-induced pulmonary fibrosis model in mice; assay type: in vivo
# Procedure: Bleomycin chloride (BLM) was dissolved in a physiological saline solution (saline). BLM was intravenously administered to 10-week-old ICR-strain male mice once in a dose of […] to induce disease. To a non-BLM administration group, saline was administered, instead. KP-496 was administered by inhalation twice a day from the initiation date of BLM administration to the day before autopsy. To describe in brief, a mouse housed in a polyethylene container under unrestrained conditions was allowed to spontaneously inhale a mist state of KP-496 solution (0.5 w/v %) nebulized by a nebulizer for 30 minutes. Furthermore, the vehicle (saline) for KP-496 was administered by inhalation to a control group, in the same manner. A group consisted of 8 animals.
# On the 7th day or 21st day after administration of BLM, the mouse was killed by exsanguinations under anaesthesia with pentobarbital. Immediately after that, BAL of the right lung alone was done. BAL fluid (BALF) was centrifuged and the supernatant was removed, and thereafter, precipitated cells were resuspended in saline. The total number of cells was determined by use of a particle counter analyzer. Furthermore, using the remaining cell suspension solution, a smear sample of cells was prepared and stained with Giemsa. The cells were classified according to the cell type. Based on the percentages of cell types, the numbers of classified cells were calculated.
# After BAL, the right lung was lyophilized. The content of hydroxyproline in the lung tissue was measured in accordance with the KISO method using chloramine T (Inayama et al., Keio J. Med., 27: 43 (1978)).
# After BAL, the left lung was fixed in 10 vol % neutral-buffered formalin solution. Thereafter, a paraffin section was prepared in a general way, stained with H. E. and azan and subjected to histopathologic examination of the lung. When an abnormality was observed, the degree of the abnormality was arbitrarily evaluated under blind conditions and scored based on the following 4 stages:
# 0: No abnormality is observed
# 1: Pathologic lesion is locally observed in a limited area of a sample
# 2: Pathologic lesion is observed about a ⅓ region of a sample
# 3: Pathologic lesion is observed about a ½ region of a sample
# 4: Pathologic lesion is observed in substantially the entire region of a sample.
# The average value and standard deviation of each group were obtained. Comparison between two groups, that is, between BLM administration/vehicle group and BLM administration/KP-496 group or a saline administration/vehicle group, was performed with the Student's t-test. Furthermore, histopathologic lesion scores were evaluated by the Mann-Whitney test. The significance level (P) was set at […].
# [2] = 7th day after BLM, inhalation twice a day
# [3] = 21st day after BLM, inhalation twice a day
smiles,measurement,setting,value
"CC(C)c1csc(COc2cccc(CN(CCCCNS(=O)(=O)c3ccc(Cl)cc3)S(=O)(=O)c3ccccc3C(=O)O)c2)n1 [KP-496, 2-{N-[4-(4-chlorobenzenesulfonylamino)butyl]-N-{3-[(4-isopropyl-2-thiazolyl)methoxy]benzyl}}sulfamoylbenzoic acid]","suppression of LTB4-induced cell migration, concentration dependence","human neutrophils; 10 nmol/L LTB4, human leukocytes, 1.5 hours",suppressed the cell migration in a concentration dependent manner
same,suppression of LTB4-induced neutrophil migration,"human neutrophils; test substance 1 μmol/L, 10 nmol/L LTB4",significantly suppressed
same,hydroxyproline content of the right lung lobe,[1]; 7th day after BLM,129.9 ± 11.35 µg
same,total number of cells in BALF,"[1]; 7th day after BLM, KP-496 0.5 w/v % inhalation twice a day",0.6±0.29 ×10^5 cells
same,number of alveolar macrophages in BALF,[1]; [2],0.6±0.27 ×10^5 cells
same,number of eosinophils in BALF,[1]; [2],0.3±0.68 ×10^3 cells
same,number of lymphocytes in BALF,[1]; [2],0.1±0.09 ×10^4 cells
same,number of neutrophils in BALF,[1]; [2],0.2±0.11 ×10^4 cells
same,"histopathologic score of acute inflammation, left lung","[1]; 7th day after BLM, score 0-4",1.0±0.76
same,hydroxyproline content of the right lung lobe,[1]; 21st day after BLM,138.0 ± 9.93 µg
same,number of alveolar macrophages in BALF,[1]; [3],0.7±0.23 ×10^5 cells
same,number of eosinophils in BALF,[1]; [3],0.1±0.21 ×10^3 cells
same,number of lymphocytes in BALF,[1]; [3],0.3±0.10 ×10^4 cells
same,number of neutrophils in BALF,[1]; [3],0.02±0.02 ×10^4 cells
same,total number of cells in BALF,[1]; [3],0.8±0.24 ×10^5 cells
same,"histopathologic score of chronic inflammation, left lung","[1]; 21st day after BLM, score 0-4",1.0±0.76
same,"histopathologic score of fibrogenesis, left lung","[1]; 21st day after BLM, score 0-4",0.6±0.52
